Laboratory results: patent US7183415B2, “Quinoline compound” (Takeda Pharmaceutical Company Limited, priority 2001, dated 2007)

Structure (SMILES) | melting point
COc1ccc(-c2ccc(C(=O)Nc3cc4ncc(CN5CCCC5)cc4cc3Cl)cc2)cc1 [Example 67, N-[6-chloro-3-(1-pyrrolidinylmethyl)-7-quinolinyl]-4′-methoxy-[1,1′-biphenyl]-4-carboxamide] | 184 °C
CCN(CC)C(=O)CC1CCN(Cc2cnc3c(C)c(NC(=O)c4ccc(-c5ccc(F)cc5)cc4)ccc3c2)CC1 [Example 204, N-[3-({4-[2-(diethylamino)-2-oxoethyl]-1-piperidinyl}methyl)-8-methyl-7-quinolinyl]-4′-fluoro[1,1′-biphenyl]-4-carboxamide] | 158 to 160 °C
CN1CCc2nc3cc(NC(=O)c4ccc(-c5ccc(Cl)cc5)cc4F)ccc3cc2C1 [Example 328, 4′-chloro-3-fluoro-N-(2-methyl-1,2,3,4-tetrahydrobenzo[b][1,6]naphthyridin-7-yl)[1,1′-biphenyl]-4-carboxamide] | > 220 °C (dec.)
COc1ccc(-c2ccc(C(=O)Nc3cc4ncc(CN5CCCC5)cc4cc3C)c(F)c2)cc1 [Example 227, 3-fluoro-4′-methoxy-N-[6-methyl-3-(1-pyrrolidinylmethyl)-7-quinolinyl][1,1′-biphenyl]-4-carboxamide] | 187 to 190 °C
Cc1ccc(-c2ccc(C(=O)Nc3ccc4cc(CN5CCCC5)cnc4c3)cc2)cc1 [Example 5, 4′-methyl-N-[3-(1-pyrrolidinylmethyl)-7-quinolinyl][1,1′-biphenyl]-4-carboxamide] | 206 to 208 °C
Cc1ccc(-c2ccc(C(=O)Nc3cc4ncc(CN5CCCC5)cc4cc3F)cc2)cc1 [Example 54, N-[6-fluoro-3-(1-pyrrolidinylmethyl)-7-quinolinyl]-4′-methyl[1,1′-biphenyl]-4-carboxamide] | 202 to 204 °C
Cc1cc2cc(CN3CCCC3)cnc2cc1NC(=O)c1ccc(-c2ccc(F)cc2)c(F)c1 [Example 233, 2,4′-difluoro-N-[6-methyl-3-(1-pyrrolidinylmethyl)-7-quinolinyl][1,1′-biphenyl]-4-carboxamide] | 163 to 166 °C
COc1ccc(-c2ccc(C(=O)Nc3ccc4cc(CN5CCCC5)cnc4c3C)cc2F)cc1 [Example 152, 2-fluoro-4′-methoxy-N-[8-methyl-3-(1-pyrrolidinylmethyl)-7-quinolinyl][1,1′-biphenyl]-4-carboxamide] | 174 to 176 °C
Cc1cc2cc(CN3CCCCCC3)cnc2cc1NC(=O)c1ccc(-c2ccc(F)cc2)cc1 [Example 251, N-[3-(1-azepanylmethyl)-6-methyl-7-quinolinyl]-4′-fluoro[1,1′-biphenyl]-4-carboxamide] | 170 to 174 °C
COc1ccc(-c2ccc(C(=O)Nc3ccc4cc(CN5CCCCCC5)cnc4c3C)c(F)c2)cc1 [Example 185, N-[3-(1-azepanylmethyl)-8-methyl-7-quinolinyl]-3-fluoro-4′-methoxy[1,1′-biphenyl]-4-carboxamide] | 171 to 172 °C
O=C(Nc1ccc2cc(CN3CCCCCC3)cnc2c1)c1ccc(-c2ccc(Cl)cc2)nc1 [Example 32, N-[3-(1-azepanylmethyl)-7-quinolinyl]-6-(4-chlorophenyl)nicotinamide] | 233 °C (dec.)
Cc1c(NC(=O)c2ccc(-c3ccc(F)cc3)cc2)ccc2cc(CN3CCC3)cnc12 [Example 191, N-[3-(1-azetidinylmethyl)-8-methyl-7-quinolinyl]-4′-fluoro[1,1′-biphenyl]-4-carboxamide] | 153 to 155 °C
Cc1cc2cc(CN3CCCCCC3)cnc2cc1NC(=O)c1ccc(-c2ccc(Cl)cc2)cc1F [Example 243, N-[3-(1-azepanylmethyl)-6-methyl-7-quinolinyl]-4′-chloro-3-fluoro[1,1′-biphenyl]-4-carboxamide] | 209 °C
COc1ccc(-c2ccc(C(=O)Nc3cc4ncc(CN5CCCCCC5)cc4cc3C)c(F)c2)cc1 [Example 245, N-[3-(1-azepanylmethyl)-6-methyl-7-quinolinyl]-3-fluoro-4′-methoxy[1,1′-biphenyl]-4-carboxamide] | 168 °C
Cc1c(NC(=O)c2ccc(-c3ccc(F)c(F)c3)cc2)ccc2cc(CN3CCCC3)cnc12 [Example 102, 3′,4′-difluoro-N-[8-methyl-3-(1-pyrrolidinylmethyl)-7-quinolinyl][1,1′-biphenyl]-4-carboxamide] | 199 to 201 °C
Cc1cc2cc(CN3CCCCCC3)cnc2cc1NC(=O)c1ccc(-c2ccc(Cl)s2)cc1 [Example 241, N-[3-(1-azepanylmethyl)-6-methyl-7-quinolinyl]-4-(5-chlorothien-2-yl)benzamide] | 180 °C
Cc1c(NC(=O)c2ccc(-c3ccc(F)cc3)c(F)c2)ccc2cc(CN3CCCCCC3)cnc12 (hydrate or solvate) [Example 189, N-[3-(1-azepanylmethyl)-8-methyl-7-quinolinyl]-2,4′-difluoro[1,1′-biphenyl]-4-carboxamide] | 162 to 163 °C
Cc1cc2cc(CN3CCCCCC3)cnc2cc1NC(=O)c1ccc(-c2ccc(Cl)cc2)cc1 [Example 238, N-[3-(1-azepanylmethyl)-6-methyl-7-quinolinyl]-4′-chloro[1,1′-biphenyl]-4-carboxamide] | 204 °C
COc1ccc(-c2ccc(C(=O)Nc3ccc4cc(CN5CCCCCC5)cnc4c3)cc2)cc1 [Example 30, N-[3-(1-azepanylmethyl)-7-quinolinyl]-4′-methoxy[1,1′-biphenyl]-4-carboxamide] | 212 °C (dec.)
O=C(Nc1ccc2cc(CN3CCCCCC3)cnc2c1)c1ccc(-c2ccc(Cl)cc2)cc1 [Example 27, N-[3-(1-azepanylmethyl)-7-quinolinyl]-4′-chloro[1,1′-biphenyl]-4-carboxamide] | 204 °C
O=C(Nc1cc2ncc(CN3CCCC3)cc2cc1N1CCCC1)c1ccc(-c2ccc(F)cc2)cc1 [Example 64, 4′-fluoro-N-[6-(1-pyrrolidinyl)-3-(1-pyrrolidinylmethyl)-7-quinolinyl][1,1′-biphenyl]-4-carboxamide] | 182 to 184 °C

The next lines start with the values.

melting point | Structure (SMILES)
218 to 220 °C | O=C(Nc1cc2ncc(CN3CCCC3)cc2cc1F)c1ccc(-c2ccc(Cl)cc2)cc1 [Example 51, 4′-chloro-N-[6-fluoro-3-(1-pyrrolidinylmethyl)-7-quinolinyl][1,1′-biphenyl]-4-carboxamide]
182 to 183 °C | COc1ccc(-c2ccc(C(=O)Nc3ccc4cc(CN5CCCC5)cnc4c3F)c(F)c2)cc1 [Example 79, 3-fluoro-N-[8-fluoro-3-(1-pyrrolidinylmethyl)-7-quinolinyl]-4′-methoxy[1,1′-biphenyl]-4-carboxamide]
179 to 181 °C | Cc1ccc(-c2ccc(C(=O)Nc3cc4ncc(CN5CCCC5)cc4cc3F)c(F)c2)cc1 [Example 61, 3-fluoro-N-[6-fluoro-3-(1-pyrrolidinylmethyl)-7-quinolinyl]-4′-methyl[1,1′-biphenyl]-4-carboxamide]
185 °C | O=C(Nc1cc2ncc(CN3CCCC3)cc2cc1Cl)c1ccc(-c2ccc(Cl)s2)cc1 [Example 69, N-[6-chloro-3-(1-pyrrolidinylmethyl)-7-quinolinyl]-4-(5-chlorothien-2-yl)benzamide]
190 to 192 °C | COc1ccc(-c2ccc(C(=O)Nc3ccc4cc(CN5CCCCC5)cnc4c3C)cc2)cc1 [Example 165]
174 to 177 °C | Cc1cc2cc(CN3CCCC3)cnc2cc1NC(=O)c1ccc(-c2ccc(F)cc2)cc1F [Example 228, 3,4′-difluoro-N-[6-methyl-3-(1-pyrrolidinylmethyl)-7-quinolinyl][1,1′-biphenyl]-4-carboxamide]
151 to 152 °C | Cc1cccc(-c2ccc(C(=O)Nc3ccc4cc(CN5CCCC5)cnc4c3C)cc2)c1 [Example 109, 3′-methyl-N-[8-methyl-3-(1-pyrrolidinylmethyl)-7-quinolinyl][1,1′-biphenyl]-4-carboxamide]
191 to 192 °C | COc1ccc(-c2ccc(C(=O)Nc3ccc4cc(CN5CCCCC5)cnc4c3C)c(F)c2)cc1 [Example 171, 3-fluoro-4′-methoxy-N-[8-methyl-3-(1-piperidinylmethyl)-7-quinolinyl][1,1′-biphenyl]-4-carboxamide]
188 °C (dec.) | O=C(Nc1cc2ncc(CN3CCCC3)cc2cc1Cl)c1ccc(-c2ccc(Cl)cc2)cc1 [Example 25, 4′-chloro-N-[6-chloro-3-(1-pyrrolidinylmethyl)-7-quinolinyl][1,1′-biphenyl]-4-carboxamide]
194 °C | Cc1cc2cc(CN3CCCC3)cnc2cc1NC(=O)c1ccc(-c2ccc3ccccc3c2)cc1 [Example 222, N-[6-methyl-3-(1-pyrrolidinylmethyl)-7-quinolinyl]-4-(2-naphthyl)benzamide]
193 to 196 °C | Cc1cc2cc(CN3CCC(CCC(=O)N(C)C)CC3)cnc2cc1NC(=O)c1ccc(-c2ccc(F)cc2)cc1 [Example 256, N-[3-({4-[3-(dimethylamino)-3-oxopropyl]-1-piperidinyl}methyl)-6-methyl-7-quinolinyl]-4′-fluoro[1,1′-biphenyl]-4-carboxamide]
222 to 224 °C | O=C(Nc1ccc2cc(CN3CCCC3)cnc2c1)N1CCC(c2ccccc2)CC1 [Example 12, 4-phenyl-N-[3-(1-pyrrolidinylmethyl)-7-quinolinyl]-1-piperidine carboxamide]
250 °C | Cc1cc2cc(CN3CCC(C(=O)N4CCCCC4)CC3)cnc2cc1NC(=O)c1ccc(-c2ccc(F)cc2)cc1 [Example 271, 4′-fluoro-N-(6-methyl-3-{[4-(1-piperidinylcarbonyl)-1-piperidinyl]methyl}-7-quinolinyl)[1,1′-biphenyl]-4-carboxamide]
202 °C | O=C(Nc1ccc2cc(CN3CCCCCC3)cnc2c1)c1ccc(-c2ccc(F)cc2)cc1 [Example 29, N-[3-(1-azepanylmethyl)-7-quinolinyl]-4′-fluoro[1,1′-biphenyl]-4-carboxamide]
206 to 208 °C | O=C(Nc1cc2ncc(CN3CCCC3)cc2cc1F)c1ccc(-c2ccccc2)cc1 [Example 52, N-[6-fluoro-3-(1-pyrrolidinylmethyl)-7-quinolinyl][1,1′-biphenyl]-4-carboxamide]
